Assay results reported in article PMC9457575 (Molecules, 2022).
Entries after “also recorded” stand apart in the source; their conditions may differ. Like-named read-outs stand apart in the source and are kept apart here.

Tests used:
[1] = target: T1, human CB1 receptor (hCB1) (Homo sapiens, UniProt P21554); experiment: cAMP accumulation assay (Lance TR-FRET) in CHO-hCB1 cells; format: cell-based; settings: for hCB1 cAMP EC50 / EC50: forskolin-stimulated; for hCB1 cAMP EC50 / hCB1 cAMP Efficacy / EC50 / Emax: mean ± SEM; for hCB1 cAMP Efficacy: % of the maximum CP55940 (full agonist) signal; for Emax: read-out: hCB1 cAMP Efficacy, % of the maximum CP55940 (full agonist) signal
T1 construct: host or cells: Chinese Hamster Ovary (CHO) cells
Description: The cAMP assays were performed in Chinese Hamster Ovary (CHO) cells (Perkin Elmer, Cat # ES-110-C) stably expressing the human CB1 receptor (hCB1) cultured under standard cell culture conditions (37 °C, 5% carbon dioxide, DMEM media with 1% Penicillin/Streptomycin and 400 µg/mL G418) using the Lance™ assay kit and manufacturer’s instructions were closely followed (Perkin Elmer). In brief, stimulation buffer containing 1X Hank’s Balanced Salt Solution (HBSS), 5 mM HEPES, 0.1% BSA stabilizer, and 0.5 mM final IBMX was prepared and titrated to pH 7.4 at rt. Serial dilutions of the test compounds and 300 nM forskolin, both prepared at 4× the desired final concentration in stimulation buffer, were added to a 96-well white ½ area microplate (PerkinElmer). The CHO-hCB1 cells were lifted with a non-enzymatic solution (Cell-stripper, Mediatech Inc., Orlando, FL, USA), and 4000 cells were added to each well. After incubating for 30 min at room temperature, Eu-cAMP tracer and uLIGHT-anti-cAMP working solutions were added per the manufacturer’s instructions. After incubation for 1 h, the TR-FRET signal (ex 337 nm, em 620 and […]) was read on a CLARIO star multimode plate reader (BMG Biotech, Cary, NC, USA). Data were analyzed using Prism software (GraphPad, La Jolla, CA, USA). Nonlinear regression analysis was performed to fit data and obtain maximum response (Emax), EC50, correlation coefficient (r^2), and other parameters. All experiments were performed in duplicate 2–3 times to ensure reproducibility and data are reported as mean ± standard error of mean unless noted otherwise.

[2] = Pharmacokinetic evaluation of brain exposure in mice; set-up: species or system C57BL/6 mice; settings: female, C57BL/6, mouse, in vivo, C57BL6 mice, 3 mg/kg IP; for Cmax: brain, 0.5-4 h, read-out: brain maximum (Cmax) concentration; for Kp: read-out: brain:plasma Cmax ratio
Description: Female C57BL/6 mice were bred in house and used at ~10 weeks of age for pharmacokinetic (PK) testing. Three animals were tested per time point. Doses were formulated in 2% NMP in canola oil, and all compounds were delivered at 3 mg/kg by intraperitoneal injection (IP). Tissues were taken at 0.5, 1, 2, and 4 h post dose. Animals were subjected to whole body perfusion using saline prior to tissue collection. Brain samples were homogenized with 50:50 ethanol:water (1:5, v/v). Forty µL of the homogenate, 10 µL of acetonitrile, and 150 µL of 100 ng/mL reserpine in acetonitrile containing 0.1% formic acid were vortexed and centrifuged. Plasma samples were diluted with 10 µL of acetonitrile, 150 µL of 100 ng/mL reserpine in acetonitrile containing 0.1% formic acid, vortexed and centrifuged. Samples were subjected to LC/MS/MS analysis. Standards were prepared in blank samples and used for calibration curves. Chromatography was performed using a Phenomenex Luna C18 column.

[3] = target: hCB1 (Homo sapiens, UniProt P21554); experiment: Radioligand displacement of [3H]CP55940; settings: average of 3 measurements, read-out: Binding affinity (Ki)
Description: Further characterization of 21 was performed using radioligand displacement of [^3H]CP55940 and equilibrium dissociation constant (Ki) value was determined as described previously. Data reported are average values from 3 measurements with <30% standard error.

[4] = CHO cells stably expressing hCB1
[5] = CHO cells stably expressing hCB1, read-out: hCB1 cAMP EC50
[6] = hCB1 cAMP EC50, CHO cells stably expressing hCB1

T1 sequence (P21554 whole entry): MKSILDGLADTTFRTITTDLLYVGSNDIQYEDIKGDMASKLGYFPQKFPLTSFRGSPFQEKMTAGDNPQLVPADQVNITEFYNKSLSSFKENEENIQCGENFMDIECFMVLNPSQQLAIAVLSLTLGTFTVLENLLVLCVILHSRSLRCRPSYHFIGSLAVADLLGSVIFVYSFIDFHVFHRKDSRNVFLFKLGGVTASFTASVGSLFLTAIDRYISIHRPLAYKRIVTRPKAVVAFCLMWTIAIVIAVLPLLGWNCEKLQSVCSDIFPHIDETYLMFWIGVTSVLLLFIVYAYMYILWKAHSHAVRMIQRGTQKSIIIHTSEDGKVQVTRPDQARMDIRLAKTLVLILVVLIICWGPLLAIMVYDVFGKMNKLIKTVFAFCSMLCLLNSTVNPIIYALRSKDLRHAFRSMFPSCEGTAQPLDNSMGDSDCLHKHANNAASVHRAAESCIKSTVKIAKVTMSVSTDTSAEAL
Chain of hCB1 (P21554 whole entry): as above

Row | Compound | hCB1 cAMP EC50 [1, 4] | melting point | EC50 [1, 5] | Emax [1] | further results
1 | N#Cc1c(Oc2cccc(NS(=O)(=O)c3ccc(OC(F)(F)F)cc3)c2)cccc1C(F)(F)F [Compound 15, N-{3-[2-Cyano-3-(trifluoromethyl)phenoxy]phenyl}-4-(trifluoromethoxy)benzene-1-sulfonamide] | Inactive | 164 to 165 °C |  |  | 
2 | N#Cc1c(Oc2ccc(NC(=O)Cc3ccccc3)cc2)cccc1C(F)(F)F [Compound 24, N-{4-[2-Cyano-3-(trifluoromethyl)phenoxy]phenyl}-2-phenylacetamide] |  | 200 to 201 °C | 366 ± 136 nM | 36% | hCB1 cAMP Efficacy [1]: 36 ± 14%; Cmax [2]: ~730 ng/mL; Kp [2]: 0.79
3 | N#Cc1ccccc1Oc1cccc(NS(=O)(=O)CCCC(F)(F)F)c1 [Compound 6, N-[3-(2-Cyanophenoxy)phenyl]-4,4,4-trifluorobutane-1-sulfonamide] |  |  | 106 ± 8 nM | 95% | 
4 | N#Cc1c(Oc2cccc(OS(=O)(=O)CCCC(F)(F)F)c2)cccc1C(F)(F)F [Compound 1, 3-[2-Cyano-3-(trifluoromethyl)phenoxy]phenyl-4,4,4-trifluoro-1-butanesulfonate, reference compound] |  |  |  |  | hCB1 cAMP Efficacy [1]: 39 ± 11%; EC50 [1, 6]: 46 ± 5 nM; Cmax [2]: ~341 ng/mL; Kp [2]: 0.4
5 | CCCCCS(=O)(=O)Nc1ccc(Oc2cccc(C(F)(F)F)c2C#N)cc1 [Compound 22, N-{4-[2-Cyano-3-(trifluoromethyl)phenoxy]phenyl}pentane-1-sulfonamide] | Inactive | 94 to 95 °C |  |  | 
6 | O=S(=O)(Cc1ccccc1)Nc1cccc(Oc2cccc(C(F)(F)F)c2Cl)c1 [Compound 9, N-{3-[2-Chloro-3-(trifluoromethyl)phenoxy]phenyl}-1-phenylmethanesulfonamide] |  | 129 to 130 °C | 255 ± 62 nM | 78% | 
7 | N#Cc1c(Oc2cccc(NC(=O)Cc3ccccc3)c2)cccc1C(F)(F)F [Compound 20, N-{3-[2-Cyano-3-(trifluoromethyl)phenoxy]phenyl}-2-phenylacetamide] |  | 136 to 137 °C | 474 ± 174 nM | < 20% | 
8 | O=S(=O)(CCCC(F)(F)F)Nc1cccc(Oc2cccc(C(F)(F)F)c2Cl)c1 [Compound 5, N-{3-[2-Chloro-3-(trifluoromethyl)phenoxy]phenyl}-4,4,4-trifluorobutane-1-sulfonamide] |  |  | 175 ± 42 nM | 95% | 
9 | N#Cc1ccccc1Oc1cccc(NS(=O)(=O)Cc2ccccc2)c1 [Compound 10, N-[3-(2-Cyanophenoxy)phenyl]-1-phenylmethanesulfonamide] |  |  | 164 ± 32 nM | 82% | 
10 | N#Cc1c(Oc2ccc(NS(=O)(=O)Cc3ccccc3)cc2)cccc1C(F)(F)F [Compound 23, N-{4-[2-Cyano-3-(trifluoromethyl)phenoxy]phenyl}-1-phenylmethanesulfonamide] | Inactive | 166 to 167 °C |  |  | 
11 | CCCCOC(=O)Nc1cccc(Oc2cccc(C(F)(F)F)c2C#N)c1 [Compound 17, Butyl N-{3-[2-Cyano-3-(trifluoromethyl)phenoxy]phenyl}carbamate] | Inactive |  |  |  | 
12 | N#Cc1c(Oc2cccc(NS(=O)(=O)c3cccc(OC(F)(F)F)c3)c2)cccc1C(F)(F)F [Compound 14, N-{3-[2-Cyano-3-(trifluoromethyl)phenoxy]phenyl}-3-(trifluoromethoxy)benzene-1-sulfonamide] | Inactive | 120 to 121 °C |  |  | 
13 | N#Cc1c(Oc2cccc(NS(=O)(=O)Cc3ccccc3)c2)cccc1C(F)(F)F [Compound 8, N-{3-[2-Cyano-3-(trifluoromethyl)phenoxy]phenyl}-1-phenylmethanesulfonamide] |  | 131 to 132 °C | 228 ± 134 nM | 102% | 
14 | N#Cc1c(Oc2cccc(NS(=O)(=O)Cc3ccc(Cl)cc3)c2)cccc1C(F)(F)F [Compound 13, 1-(4-Chlorophenyl)-N-{3-[2-cyano-3-(trifluoromethyl)phenoxy]phenyl}methanesulfonamide] |  | 115 to 116 °C |  | 95% | hCB1 cAMP potency compared to the unsubstituted benzylsulfonamide 8 ([1]; fold more potent than 8): about 10 ×; EC50 [1, 6]: 25 ± 4 nM
15 | CCCCN(C)C(=O)Nc1cccc(Oc2cccc(C(F)(F)F)c2C#N)c1 [Compound 19, 3-Butyl-1-{3-[2-cyano-3-(trifluoromethyl)phenoxy]phenyl}-3-methylurea] | Inactive |  |  |  | 
16 | N#Cc1c(Oc2cccc(NS(=O)(=O)CCCC(F)(F)F)c2)cccc1C(F)(F)F [Compound 4, N-{3-[2-Cyano-3-(trifluoromethyl)phenoxy]phenyl}-4,4,4-trifluorobutane-1-sulfonamide] |  | 96 to 97 °C | 190 ± 46 nM | 96% | 
17 | N#Cc1c(Oc2cccc(NS(=O)(=O)NC3CCCCC3)c2)cccc1C(F)(F)F [Compound 21, N-Cyclohexyl({3-[2-cyano-3-(trifluoromethyl)phenoxy]phenyl}mamino)sulfonamide] |  | 199 to 200 °C |  | 27% | Ki [3]: ~1500 nM; hCB1 cAMP Efficacy [1]: 27 ± 18%; EC50 [1, 6]: 139 ± 24 nM; Cmax [2]: ~75 ng/mL; Kp [2]: 0.17
18 | CCCCCS(=O)(=O)Nc1cccc(Oc2cccc(C(F)(F)F)c2C#N)c1 [Compound 7, N-{3-[2-Cyano-3-(trifluoromethyl)phenoxy]phenyl}pentane-1-sulfonamide] |  |  | 248 ± 108 nM | 76% | 
19 | N#Cc1c(Oc2cccc(NS(=O)(=O)Cc3cccc(Cl)c3)c2)cccc1C(F)(F)F [Compound 12, 1-(3-Chlorophenyl)-N-{3-[2-cyano-3-(trifluoromethyl)phenoxy]phenyl}methanesulfonamide] | loss of activity; also recorded: Inactive | 144 to 145 °C |  |  | 
20 | N#Cc1c(Oc2cccc(NS(=O)(=O)Cc3ccccc3Cl)c2)cccc1C(F)(F)F [Compound 11, 1-(2-Chlorophenyl)-N-{3-[2-cyano-3-(trifluoromethyl)phenoxy]phenyl}methanesulfonamide] | loss of activity; also recorded: Inactive | 121 to 122 °C |  |  | 
21 | CCCCCC(=O)Nc1cccc(Oc2cccc(C(F)(F)F)c2C#N)c1 [Compound 16, N-{3-[2-Cyano-3-(trifluoromethyl)phenoxy]phenyl}hexanamide] | Inactive | 95 to 96 °C |  |  | 
22 | CCCCNC(=O)Nc1cccc(Oc2cccc(C(F)(F)F)c2C#N)c1 [Compound 18, 3-Butyl-1-{3-[2-cyano-3-(trifluoromethyl)phenoxy]phenyl}urea] | Inactive |  |  |  | 
